{"source": "paper PMC9115111", "about": "“Metalloprotease Gp63-Targeting Novel Glycoside Exhibits Potential Antileishmanial Activity” (Frontiers in Cellular and Infection Microbiology, 2022)", "key": {"[1]": {"tested_on": "L. donovani promastigotes", "assay": "DCFDA estimation of reactive oxygen species in promastigotes", "assay_type": "cell-based, Leishmania donovani", "details": "Gly2-treated promastigotes, 72 h", "protocol": "The redox homeostasis of promastigotes was monitored both qualitatively and quantitively by 2',7'-dichlorodihydrofluorescein diacetate (DCFDA) (Life Technologies, USA) staining. The untreated and […]-treated promastigotes (1 × 10^6 cells/ml) were cultured for 72 h. Following incubation, the parasites were harvested, washed with PBS, and stained with H2DCFDA (20 μM) for 20 min at 37°C. Excess stain was removed by washing with PBS, and samples were resuspended in PBS (50 μl) followed by imaging. Fluorescence intensity was determined using an excitation filter at 485 nm and an emission filter at 535 nm using confocal microscope (Nikon Ti eclipse, USA). The samples were also analyzed through BD FACS diva ([Shivappagowdar et al., 2019])."}, "[2]": {"tested_on": "promastigotes of clinical isolate of PKDL strain, BS12 of L. donovani", "assay": "LDH cytotoxicity assay on promastigotes of clinical PKDL isolate BS12", "assay_type": "cell-based", "details": "Leishmania donovani, LDH assay 72 h", "protocol": "Promastigote forms of L. donovani (MHOM/IN/1983/AG83) were cultured at 26°C in M199 (GIBCO, India), pH 7.4, supplemented with 10% (v/v) inactivated fetal bovine serum (FBS, GIBCO, India) and 0.02 mg/ml gentamycin (Life Technologies, USA). The clinical isolate of PKDL, BS12, was obtained as a gift from Prof. Mitali Chatterjee [Department of Pharmacology, Institute of Postgraduate Medical Education and Research (IPGMER), Kolkata, India]. […]\nAG83 strain of L. donovani were exposed to various Gly compound concentrations (100 nM–100 µM) in a 96-well microtiter plate (100 µl/well volume) and were incubated for 72 h at 26°C. […] The percent cytotoxicity of test compounds was calculated by normalizing with amphotericin B as 100%. Further percentage growth inhibition was calculated using the formula: […]\nWe further evaluated the effect the Gly2 on the clinical isolate of PKDL strain, BS12 of L. donovani ([Sengupta et al., 2019]). […] Along with Gly2, we also evaluated the cytotoxic effects of 12 compounds on L. donovani promastigotes derived from clinical isolates of PKDL strain at 5 µM ( Supplementary Figure S2 )."}, "[3]": {"tested_on": "L. donovani intracellular amastigotes in J774.A1 macrophages", "assay": "Intramacrophage amastigote assay (Giemsa staining, J774.A1)", "assay_type": "cell-based, Leishmania donovani", "details": "treated at IC50 concentration, 24 h; untreated control ~5", "protocol": "For evaluating the efficacy of compounds against intramacrophage amastigotes, Giemsa staining (Sigma-Aldrich) was performed. J774.A1 murine macrophage cells were plated at a cell density of 5 × 10^5 cell/well in a 6-well flat bottom plate. The cells were infected with late-stage L. donovani, rich in promastigotes at a ratio of 10:1. After 6 h, uninfected promastigotes were washed off with PBS."}, "[4]": {"target": "T1, LdGp63 (Leishmania donovani, UniProt P23223)", "T1 construct": "endogenous in cells; host or cells: Leishmania donovani promastigotes (AG83 lab strain per abstract)", "T1 sequence (P23223 88-565)": "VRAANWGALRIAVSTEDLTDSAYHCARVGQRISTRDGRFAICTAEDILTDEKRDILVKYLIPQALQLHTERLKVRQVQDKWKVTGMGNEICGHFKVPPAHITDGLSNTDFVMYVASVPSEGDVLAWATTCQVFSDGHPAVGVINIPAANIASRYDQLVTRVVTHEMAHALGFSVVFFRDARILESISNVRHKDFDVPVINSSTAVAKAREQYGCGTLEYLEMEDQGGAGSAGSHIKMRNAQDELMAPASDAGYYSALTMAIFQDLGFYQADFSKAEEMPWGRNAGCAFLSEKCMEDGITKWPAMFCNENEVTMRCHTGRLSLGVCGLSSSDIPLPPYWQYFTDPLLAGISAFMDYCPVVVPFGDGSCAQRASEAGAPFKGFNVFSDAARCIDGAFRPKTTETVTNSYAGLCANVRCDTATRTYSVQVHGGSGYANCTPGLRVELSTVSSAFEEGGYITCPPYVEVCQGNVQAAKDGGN", "assay": "Cellular thermal shift assay (CETSA) in promastigotes", "assay_type": "binding", "details": "5 µM, 24 h, heated to 80°C; Gp63 destabilized in untreated lysate", "protocol": "Control cells were incubated with an equal volume of a vehicle. Following incubation, the parasites were washed with PBS to remove excess drug and harvested in 200 μl of a lysis solution (50 mM HEPES, 150 mM NaCl, 1% Triton X-100 and 1% IGEPAL, 1 mM phenylmethyl sulfonyl fluoride). The lysates were centrifuged at 14,000 g for 20 min at 4°C, and supernatants were transferred to new tubes. Furthermore, the protein concentration was measured using the Pierce BCA protein assay kit. After preparation of lysates, 30 μl (0.8 mg/ml) aliquots of the supernatants were heated individually on a Thermomixer compact (Eppendorf) at different temperatures for 7 min and then cooled at room temperature for 3 min. CETSA samples were separated by SDS-PAGE, and immunoblotting was performed as described previously using a mouse polyclonal anti-LdGp63 catalytic domain antibody (1:500) ([Chakrabarti et al., 2021])."}, "[5]": {"tested_on": "L. donovani promastigotes", "assay": "JC-1 mitochondrial membrane potential in promastigotes", "assay_type": "cell-based, Leishmania donovani", "details": "treated promastigotes vs control, 24 h", "protocol": "Mitochondrial membrane (Δψm) potential was examined using 5,6-dichloro-2-[3-(5,6-dichloro-1,3-diethyl-1,3-dihydro-2H-benzimidazol-2-ylidene)-1propenyl]-1,3-diethyl-,iodide (JC-1 dye) (Life Technologies, USA) as a probe. Treated and untreated groups were incubated for 24 h. Cells were washed with PBS and JC-1 labeled, and samples were analyzed through FACS diva (Beckton-Dickinson, Pharmingen). The approximate fluorescence excitation/emission maxima of 514/529 nm for monomeric form and 585/590 nm for J-aggregate form were used. The labeled cells were also allowed to adhere to glass slides for visualization under fluorescence microscope (Nikon Ti eclipse, USA) ([Shivappagowdar et al., 2019])."}}}
{"smiles": "CC(C)CCOC1O[C@H](CO)[C@@H](O)[C@H](O)[C@H]1O", "note": "(some centres unmarked) [Gly2]", "values": [{"measurement": "% DCFDA+ parasites", "setting": "[1]", "result": "~ 50%"}, {"measurement": "IC50", "setting": "[2]", "result": 1.97, "unit": "µM"}, {"measurement": "number of amastigotes per infected macrophage", "setting": "[3]", "result": "~ 1 amastigotes/macrophages"}, {"measurement": "thermostability of Gp63 in treated lysates (immunoblot)", "setting": "[4]", "result": "stable at higher temperature"}, {"measurement": "mitochondrial uptake of JC-1 dye (ΔΨm)", "setting": "[5]", "result": "significantly decreased"}]}
